From patent US20130045500A1, “CELL EVALUATION METHOD” (NATIONAL CANCER CENTER, priority 2011, published 2013)

System: human breast-cancer-derived cell line T47D
Experiment: Survival rate by ATP assay (CellTiter-Glo) and number of spheroids on NanoCulture plate
Assay type: cell-based
Conditions: trastuzumab 10 μg/mL, paclitaxel 6.0 μg/mL, 7 days after medicine was added, expected effects confirmed in b72 (FIG. 8, FIG. 9)
Method: A human breast-cancer-derived cell line T47D was suspended in a culture medium (NCM-M made by SCIVAX Co., Ltd.), and seeded on a NanoCulture (registered mark) plate (made by SCIVAX Co., Ltd., 96-well plate, material of concavo-convex structure surface: cyclic-olefin polymer (COP), planar shape of concavo-convex structure: regular hexagon, width between unit structures (line width): 700 nm, minimum internal diameter of unit structure: 3 μm, and depth: 1 μm) at 1×10^4 cells/well, and incubated at 37° C. and 5% CO2.
The survival rate of the cell on the tenth day (the seventh day after medicines were added) was evaluated based on the assay of the ATP in the cell using CellTiter-Glo Luminescent Cell Viability Assay (Promega KK.) and calculated as a relative value, and the results are shown in FIG. 8.

CC(=O)O[C@H]1C(=O)[C@@]2(C)[C@H]([C@H](OC(=O)c3ccccc3)[C@]3(O)C[C@H](OC(=O)[C@H](O)[C@@H](NC(=O)c4ccccc4)c4ccccc4)C(C)=C1C3(C)C)[C@]1(OC(C)=O)CO[C@@H]1C[C@@H]2O [paclitaxel]
antitumor effect (ATP amount in the cell and number of spheroids): shows an antitumor effect
